How the values were obtained:
[1] = Bacterial cell-wall components on dye-coated substrate and titration with Reichardt's dye; conditions: 5%, 1%, 0.2% (wt/wt) solutions (pure LPS 0.1%, 0.02%, 0.004%); both experimental set-ups
Salmonella = assay: Dye-coated absorbent substrate tested with Salmonella-containing liquid; conditions: 100 microliter aliquots on dye-coated substrate
Source text: Gibraltar Labs (Fairfield, N.J.) placed 100 microliter aliquots of the solutions onto the absorbent substrate.

E. coli = assay: Titration of microorganism spot with Reichardt's dye solution; conditions: 10^7 CFU/ml, 100 μl; dye 160 mg in 10 g acetonitrile, 10 μl aliquots
Source text: (§1) 10^7 CFU/ml of S. aureus.

S. aureus [2] = assay: as above; conditions: 10^7 CFU/ml, 100 μl; dye 160 mg in 10 g acetonitrile, 10 μl aliquots
Source text: as §1

[3] = system: bacterial spores such as Anthracis bacillus
vegetative organism = system: vegetative organism; set-up: species or system Anthracis bacillus
autoclaved S. aureus = assay: Autoclaved bacteria sprayed with Reichardt's dye indicator spray; conditions: S. aureus 10^6 CFU/mL autoclaved; spray 160 mg in 10 g isopropanol
Procedure: In order to verify that the bacterial cell wall plays a critical role in this reaction, a vial of S. aureus (10^6 CFU/mL) was autoclaved before testing with the indicator spray (160 mg Reichardt's Dye in 10 g of isopropanol). Autoclaving kills bacteria by essentially blowing the cell wall apart. The steam from the autoclave penetrates the bacteria and rips the membrane apart.

S. aureus protoplasts = assay: Protoplasts on label coated with Reichardt's dye; conditions: 100 μL aliquot, label coated with 80 mg/10 g acetonitrile, approximately 5 minutes
Procedure: An additional test to verify reaction with the cell wall was performed by creating protoplasts through enzymatic digestion of the bacterial cell wall. […] Louis, Mo.) suspended in TM buffer (0.05 M Tris-HCl, pH 7.4, 20 mM MgCl2) with 15% (w/v) of sucrose (Sigma-Aldrich, St. Louis, Mo.). The reaction was carried out for one hour at 30° C., after which the solution was centrifuged at 10,000×g, and rinsed twice with TM buffer containing 13% (w/v) sucrose according to methods detailed by Taku and Fan (The Journal of Biological Chemistry, 1979). The solution containing protoplasts was reacted (100 μL aliquot) with an Avery label coated with Reichardt's dye (80 mg/10 g acetonitrile). Untreated bacteria was diluted 10 fold in the TM/13% sucrose buffer (without lysozyme) and were placed on the label as a positive control.

[4] = system: Haemophilus influenzae (ATCC # 49247); assay: Reichardt's dye-treated samples with upper respiratory pathogens; conditions: 100 microliters
Source text: (§2) It has been observed in prior experiments that gram positive bacteria elicit a stronger de-colorization response than other types of microorganisms.

[5] = system: Moraxella lacunata (ATCC # 17972); assay: as above; conditions: 100 microliters
Source text: as §2

[6] = system: Streptococcus pneumoniae (ATCC # 10015); assay: as above; conditions: 100 microliters
Source text: as §2

[7] = system: Streptococcus pyogenes (ATCC # 10782); assay: as above; conditions: 100 microliters
Source text: as §2

Rhinovirus Type 42 = assay: Reichardt's dye-treated samples with upper respiratory viruses; conditions: compared with Salmonella bacterial control at a similar concentration
Lactobacillus = assay: Titration of microorganism spot with Reichardt's dye solution; conditions: 10^7 CFU/ml, 100 μl; dye 160 mg in 10 g acetonitrile, 10 μl aliquots
G. vaginalis = assay: as above; conditions: 10^7 CFU/ml, 100 μl; dye 160 mg in 10 g acetonitrile, 10 μl aliquots
P. aeruginosa = assay: as above; conditions: 10^7 CFU/ml, 100 μl; dye 160 mg in 10 g acetonitrile, 10 μl aliquots
C. albicans = assay: as above; conditions: 10^7 CFU/ml, 100 μl; dye 160 mg in 10 g acetonitrile, 10 μl aliquots
A. niger = assay: as above; conditions: 10^5 CFU/mL, 100 μl; dye 160 mg in 10 g acetonitrile, 10 μl aliquots
S. aureus [8] = assay: Standard curve on dye-coated paper, Delta E against log CFU/mL; conditions: paper coated with 80 mg/10 g acetonitrile, 100 μL aliquots, spectrophotometer CIELAB
[9] = system: Influenza A (ATCC # VR-544); assay: Reichardt's dye-treated samples with upper respiratory viruses; conditions: compared with Salmonella bacterial control at a similar concentration
gram-positive bacteria = assay: Visible colour change of Reichardt's dye-coated absorbent substrate, serial dilutions of bacteria; conditions: 100 μl aliquot on dye-coated substrate, colour change visible to the eye

C[C@@H](O[C@H]1[C@H](O)[C@@H](CO)OC(O)[C@@H]1N)C(=O)O (stereo partly drawn) [Muramic acid, muramic acid]
de-colorization of Reichardt's dye by cell-wall component [1]: strongest reaction, resulting in a near instantaneous de-colorization of the dye

[O-]c1c(-c2ccccc2)cc(-[n+]2c(-c3ccccc3)cc(-c3ccccc3)cc2-c2ccccc2)cc1-c1ccccc1 [Reichardt's dye, 4-(2,4,6-triphenylpyridinium-1-yl)-2,6-diphenylphenolate]
de-colorization of the dye (Salmonella): decolorized the dye | Amount of Dye Required for Persistent Color (E. coli): 90 µL | Amount of Dye Required for Persistent Color (S. aureus [2]): 90 µL | sensitivity of the dye to bacterial spores [3]: not sufficiently sensitive | de-colorization of the dye (vegetative organism): de-colorization occurred | de-colorization of the dye (autoclaved S. aureus): no de-colorization was observed | de-colorization of the dye (S. aureus protoplasts): minimal de-colorization | de-colorization of dye-treated samples [4]: de-colorized | de-colorization of dye-treated samples [5]: de-colorized | de-colorization of dye-treated samples [6]: de-colorized | de-colorization of dye-treated samples [7]: de-colorized | de-colorization of the dye (Rhinovirus Type 42): markedly less de-colorization | Amount of Dye Required for Persistent Color (Lactobacillus): 110 µL | Amount of Dye Required for Persistent Color (G. vaginalis): 90 µL | Amount of Dye Required for Persistent Color (P. aeruginosa): 80 µL | Amount of Dye Required for Persistent Color (C. albicans): 70 µL | Amount of Dye Required for Persistent Color (A. niger): 50 µL | responsiveness of the dye (Delta E) (S. aureus [8]): dose-dependent | de-colorization of the dye [9]: markedly less de-colorization | lower limit for indication of gram-positive bacteria (gram-positive bacteria): 100 CFU/ml

Reference: patent publication US8247220B2, “Optical indicator for detecting bacterial pathogens” (Kimberly-Clark Worldwide, Inc., priority 2008, dated 2012)
